Series [1] has as its system MBP-induced EAE. In words: MBP-induced Lewis rat EAE. The following applies: i.p. daily from day 9. Type of series: in vivo. From the text:
The inhibitory activity of Compound 1 was characterized in both mouse and rat models of EAE. Mice were immunized s.c. with myelin oligodendrocyte glycoprotein (MOG) peptide 35-55 in CFA and later injected i.v. with Pertussis toxin. Mice were randomized at day 10 and given compound i.p. Compounds were subsequently administered daily and the animals assessed for clinical score. Mice were scored as follows: 0=no disease; 1=limp tail; 2=paralysis of one or both hind limbs; 4=paralysis of both hind- and forelimbs. […] Rats were dosed daily i.p. with compound starting day 9. Rats were scored daily and cumulative scores were determined by adding the average daily scores over the experimental period. […] The average daily scores+/−SEM and the cumulative average scores are shown. Cumulative average scores were determined by adding the average daily scores over the experimental period.

For series [2], the system named is cuprizone-induced demyelination. Kind of series: Mouse model of cuprizone-induced demyelination. Type of series: in vivo, C57BL/6 female mice. On the procedure:
Compound 1 was tested in the mouse model of cuprizone-induced demyelination to determine the protective effects of Compound 1. The general protocol for cuprizone model demyelination is as follows:
C57BL/6 female mice at 7-8 weeks old were fed a cuprizone diet (7012, 0.2% cuprizone mixed in standard pellet rodent chow purchased from Harlan Teklad, Indianapolis, Ind., USA) for 5 weeks. The cuprizone food was changed every two days and given ad libitum along with water. An additional group of mice was fed normal chow for 5 weeks to serve as a no cuprizone control.
Animals were dosed intraperitoneally (i.p.) once daily based on body weight with Compound 1 (25 mg/kg, 10 mL/kg in saline), minocycline positive control (25 mg/kg, 10 mL/kg in saline) or saline sham starting on the day of cuprizone diet initiation (day 0) and continuing until day of harvest.
At 3, 4, and 5 weeks of cuprizone feeding, ten mice from each group were euthanized by CO2 asphyxiation and decapitation and the brains were harvested and fixed in 10% buffered neutral formalin.
Postfixed brains were paraffin embedded and 8-12 μm serial sections of the brain between the septostriatal and rostral diencephalon were prepared for luxol fast blue periodic acid-Schiff base (LFB-PAS) staining (demyelination). Both medial and lateral demyelination of the corpus callosum was determined.
Demyelination scores for the medial corpus callosum ranged from 0 to 4 (0=fully myelinated, 1=<⅓ demyelination in the center of the medial corpus callosum, 2=<⅔ demyelination in the center of the corpus callosum, 3=no myelin in the center of corpus callosum and 4=demyelination extending to the arch of the medial corpus callosum). Demyelination in the lateral corpus callosum was scored on weeks 4 and 5 and ranged from 0 to 3 (0=normal myelination and 3=complete demyelination). Demyelination was scored 2-3 times for at least 2 brain sections.
Axon loss in the medial corpus callosum was determined on additional serial sections of brain using Bielschowsky silver staining. Axon loss in the medial corpus callosum was scored from 0-4 (0=normal number of axons to 4=complete axon loss) at 3, 4 and 5 weeks. Slides were scored by two technicians who were blinded to the treatment groups.

The subject of series [3] is cerebellar granule neurons. Kind of series: Glutamate-induced neurodegeneration in cerebellar granule neurons (MTT). Type of series: cell-based, C57BL/6 mouse. The following applies: Mus musculus, Neuron. An excerpt:
The method for isolation of cerebellar granule neurons has been previously described in published studies. Neonate C57BL/6 mouse pups, 7-8 days old, are obtained. Heads are removed and rinsed in 70% alcohol and transfered to an 85 mm dish filled with PBS on ice. Heads are cut, the brains removed, and the cerebella dissected and placed in a 50 mm dish with PBS on ice. The meninges, choroids plexus and blood vessels are removed from the cerebellum and the cleaned organ is transferred to a 35 mm dish with Hank's buffered salt solution (HBSS) containing Ca^2+ and Mg^2+. Each cerebellum is cut into pieces and incubated with trypsin solution at 37° C. for 10 minutes, after which 0.5 mg/ml (final concentration) trypsin inhibitor and 0.1 mg/ml (final concentration) DNAse are added. After centrifugation, cerebellar fragments are resuspended in dissociation medium (HBSS with Ca^2+, Mg^2+, trypsin inhibitor, DNAse) and a single cell suspension generated by agitation with a Pasteur pipette. After the coarse debris settles, the supernatant (cell suspension) is passed through a cell strainer (40 μm, Becton Dickinson #1942501) into a 50 ml sterile tube and the cells centrifuged. Cells are washed and re-suspended in culture medium (BME Basal Medium containing 10% fetal bovine serum, 100 IU/ml penicillin/streptomycin, 10 mM HEPES, 25 mM KCl, 2 mM L-glutamine).
The cell suspension is transferred to poly-D-lysine-coated dishes and incubated for 25 min at 37° C. in 5% CO2. After incubation, the non-adherent cells are removed and counted with a hemocytometer. A suspension of 0.9×10^6 cells/ml is prepared in culture medium, and 100 μL volumes are added per well (250,000 cells/cm^2) in poly-D-Lysine coated 96-well plates. One day after plating, cytosine arabinoside (AraC) is added to a final concentration of 10 μM. After 6-8 days of in vitro culture, the neurons are ready to be used in the assay.
To test the activity of Compound 1 and minocycline, compounds were added to the neuron cultures at varying concentrations. Buffer was added to some cells as a negative control. After pre-incubation with compound for 30 minutes at 5% CO2, 37° C., glutamate was added at a final concentration of […] and the cells further incubated for 1 hour. Glutamate was not added to some cells as a positive control for cell survival. After the 1 hr period, cells were washed once with culture medium and 100 μL of fresh medium were added per well. Compounds were re-added to the cells and the cultures were incubated overnight at 5% CO2, 37° C. […] Spectrophotometric absorbance at wavelength 570 nm was measured using a microplate reader.
The MTT absorbance for non-stimulated cells was considered the 100% survival level.

Series [4] relates to MS. The following applies: MS clinical studies, cited from earlier work.
The mark [5] stands for this setting: Lateral Corpus Callosum, Week 4, 25 mg/kg/d i.p.
Setting [6] is: Lateral Corpus Callosum, Week 5, 25 mg/kg/d i.p.
The mark [7] stands for this setting: Medial Corpus Callosum, Week 3, 25 mg/kg/d i.p.
The mark [8] stands for this setting: Medial Corpus Callosum, Week 4, 25 mg/kg/d i.p.
Where [9] appears, read: Medial Corpus Callosum, Week 5, 25 mg/kg/d i.p.
Where [10] appears, read: Table 4, unit inferred, read-out: Neuroprotection (mouse CGN).
The mark [11] stands for this setting: concentration at which 50% of the maximum response is observed, read-out: EC50, survival of glutamate-stimulated cerebellar granule neurons.

“And” between values parts separate entries of the source, which are not always exact repeats. Equal entries are not always repeated. Where two headings read alike, the source gives them in different places. Marks after values point to notes of the source that are not given here.

For the molecule `CCc1cc(N(C)C)c2c(c1O)C(=O)C1=C(O)[C@]3(O)C(=O)C(C(N)=O)=C(O)[C@@H](N(C)C)[C@@H]3C[C@@H]1C2` [Compound 1], the “Effect on clinical course of EAE (onset, maximum disease severity)” value in series [1] was “both delayed the onset and inhibited the maximum disease severity more potently than minocycline”. In addition, the “% Inhibition Demyelination” value in series [2] (setting [5]) is recorded as 62%; in series [2] (setting [6]), 29%; in series [2] (setting [7]) it was 70%; in series [2] (setting [8]), 13%; in series [2] (setting [9]), −11%. Further, the “% Inhibition Axon Loss” value was 62% and 66* % in series [2] (setting [7]); 41% in series [2] (setting [8]); 3% in series [2] (setting [9]). For the same molecule, the figures for the EC50 in series [3] (setting [10]) and in series [3] (setting [11]) were 2600 ± 900 nM and 2600 nM, respectively.
With `CN(C)c1ccc(O)c2c1C[C@H]1C[C@H]3[C@H](N(C)C)C(O)=C(C(N)=O)C(=O)[C@@]3(O)C(O)=C1C2=O` [Minocycline, minocycline, reference compound], the potential side effects result in series [4] is recorded as “Mild Nausea”; in series [4] (listed as minocycline), “Mild nausea”. Also, the “% Inhibition Demyelination” value in series [2] (setting [5]) is recorded as 63* %; in series [2] (Lateral Corpus Callosum, Week 4, 25 mg/kg/d i.p., listed as minocycline), 63%; in series [2] (setting [6]), 25%; in series [2] (setting [7]), 31%; in series [2] (setting [8]), 17%; in series [2] (setting [9]), 12%. Also, the “% Inhibition Axon Loss” value is reported as 29% in series [2] (setting [7]), 30% in series [2] (setting [8]) and −10% in series [2] (setting [9]). Further, the results for the EC50 in series [3] (setting [10]) and in series [3] (setting [11]) were 1400 ± 100 nM and 1400 nM, respectively.
